Strand notation (5' to 3'): a small letter for the sugar, then the base; units joined by * are phosphorothioate-linked, units joined directly phosphodiester-linked; [ ] holds rarer units or linkages, { } end groups; capitals alone tell only the bases. k = constrained ethyl (cEt); [5mC] = 5-methylcytosine; d = 2'-deoxy (DNA)
Tested on: human SMAD7 mRNA
Assay: Antisense inhibition of human SMAD7 mRNA expression in Hep3B cells by 3-10-3 cEt gapmers, 10,000 nM, electroporation (Example 2)
Type: cell-based
Conditions: Hep3B cells, 10,000 nM antisense oligonucleotide, electroporation, approximately 24 hours, RT-PCR primer probe set RTS5062, relative to untreated control cells
Method in brief: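 Hep3B cells (20,000/well) were electroporated with 10,000 nM 3-10-3 cEt gapmer (16-mer, phosphorothioate, 5-methylcytosines) and harvested after about 24 h. SMAD7 mRNA quantified by RT-qPCR with primer probe set RTS5062, normalized to total RNA by RiboGreen; percent inhibition relative to untreated cells.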

Row | Substance | % Inhibition [%]
1 | 799837 (antisense kT*k[5mC]*kA*dT*dA*dA*dG*d[5mC]*dA*dT*dA*dG*dA*kT*kT*kT) [compound 799837] | 38
2 | 799838 (antisense kT*kT*kG*d[5mC]*dA*d[5mC]*d[5mC]*d[5mC]*d[5mC]*d[5mC]*dA*dT*dA*kA*k[5mC]*kT) [compound 799838] | 2
3 | 799839 (antisense kA*kG*k[5mC]*dA*d[5mC]*dA*dA*dT*dA*dT*dG*dA*dA*kT*kG*kT) [compound 799839] | 36
4 | 799840 (antisense kA*kG*kG*dG*dA*dA*dG*dT*dT*dA*dG*dT*dG*kT*kT*kT) [compound 799840] | 22

Same assay, conditions: Hep3B cells, electroporation with 10,000 nM antisense oligonucleotide, approximately 24 hours, RTS5062, percent inhibition of SMAD7 mRNA relative to untreated control cells

Row | Substance | % Inhibition [%]
5 | 799801 (kA*kA*kT*d[5mC]*dA*dA*dG*dT*d[5mC]*d[5mC]*dT*d[5mC]*dT*kG*kG*kA; antisense) [compound 799801] | 18
6 | 799802 (k[5mC]*k[5mC]*kA*dG*dA*d[5mC]*dA*dG*dG*d[5mC]*d[5mC]*dA*dG*kG*kG*k[5mC]; antisense) [compound 799802] | 20
7 | 799803 (kA*kG*kA*dA*dG*dG*dA*dT*dG*dA*dA*dT*dG*kT*kG*kA; antisense) [compound 799803] | 10
8 | 799804 (kA*k[5mC]*kA*dG*dA*d[5mC]*dA*dG*dA*dG*dA*dA*dG*kG*kA*kT; antisense) [compound 799804] | 38
9 | 799805 (k[5mC]*kG*kA*dG*dA*dA*dG*dA*dG*dT*dA*dA*dT*kT*k[5mC]*kA; antisense) [compound 799805] | 1
10 | 799806 (antisense kG*kA*kG*dG*dA*dG*d[5mC]*dG*dA*dG*dA*dA*dG*kA*kG*kT) [compound 799806] | 6
11 | 799807 (antisense kA*kA*kA*dT*dT*dG*dG*dA*dA*dT*dT*dG*dA*kG*kA*k[5mC]) [compound 799807] | 37
12 | 799809 (antisense k[5mC]*kA*kA*dT*dA*d[5mC]*dT*dG*dA*dA*dA*dT*dG*kA*kG*k[5mC]) [compound 799809] | 43
13 | 799810 (antisense k[5mC]*kT*kT*dA*dT*dT*dG*dT*dT*dT*dT*dT*dG*kT*kT*k[5mC]) [compound 799810] | 14
14 | 799821 (antisense k[5mC]*k[5mC]*k[5mC]*d[5mC]*dA*dG*dA*dA*dA*dA*d[5mC]*dA*dG*k[5mC]*k[5mC]*k[5mC]) [compound 799821] | 17
15 | 799822 (antisense k[5mC]*kA*k[5mC]*dG*dA*dT*d[5mC]*d[5mC]*dT*dG*dG*dG*d[5mC]*kT*k[5mC]*kT) [compound 799822] | 0
16 | 799823 (antisense kA*k[5mC]*kA*dG*dG*dA*dA*dA*dG*dT*dG*dG*dA*kG*kG*kA) [compound 799823] | 46
17 | 799824 (antisense kG*kA*kA*dA*dT*dG*dG*d[5mC]*dT*d[5mC]*d[5mC]*dT*dG*k[5mC]*kA*kA) [compound 799824] | 9
18 | 799825 (antisense kG*kA*k[5mC]*dT*dT*dG*dG*d[5mC]*dA*dG*d[5mC]*d[5mC]*dA*kA*kG*k[5mC]) [compound 799825] | 0
19 | 799826 (antisense kG*kA*kT*d[5mC]*dA*dT*dT*d[5mC]*d[5mC]*d[5mC]*dA*d[5mC]*dA*k[5mC]*k[5mC]*k[5mC]) [compound 799826] | 33
20 | 799827 (antisense kA*kA*k[5mC]*dT*dA*d[5mC]*dA*dA*d[5mC]*d[5mC]*dT*dT*dT*kT*kT*kA) [compound 799827] | 26
21 | 799828 (antisense kT*kG*k[5mC]*dG*dA*dG*d[5mC]*d[5mC]*dA*dA*dG*dA*dG*kA*k[5mC]*kA) [compound 799828] | 54
22 | 799829 (antisense kG*kA*kG*dT*dT*dT*dG*d[5mC]*dG*dA*dG*d[5mC]*d[5mC]*kA*kA*kG) [compound 799829] | 75
23 | 799830 (antisense kG*kA*kA*dG*dA*dG*dT*dT*dT*dG*d[5mC]*dG*dA*kG*k[5mC]*k[5mC]) [compound 799830] | 55
24 | 799841 (antisense kA*kA*kA*dG*dA*dA*dT*dG*dG*dT*dG*dG*dG*kT*kG*k[5mC]) [compound 799841] | 37
25 | 799842 (antisense kG*kA*kA*dA*dG*dA*dA*dT*dG*dG*dT*dG*dG*kG*kT*kG) [compound 799842] | 16
26 | 799843 (antisense kG*kG*kA*dG*dG*dA*dG*dG*d[5mC]*dA*dA*dA*dT*kT*k[5mC]*kA) [compound 799843] | 42
27 | 799844 (antisense kA*kG*kA*dG*dG*dA*dG*dG*dA*dG*dG*d[5mC]*dA*kA*kA*kT) [compound 799844] | 11
28 | 799845 (antisense kG*kA*kA*dG*dT*dA*d[5mC]*d[5mC]*dT*dA*dG*dA*dG*kG*kA*kG) [compound 799845] | 31
29 | 799846 (kT*k[5mC]*k[5mC]*dA*d[5mC]*dT*dA*dT*dT*d[5mC]*dT*dA*dT*kG*kA*kA; antisense) [compound 799846] | 25
30 | 799847 (kT*kT*k[5mC]*d[5mC]*dA*d[5mC]*dT*dA*dT*dT*d[5mC]*dT*dA*kT*kG*kA; antisense) [compound 799847] | 30
31 | 799848 (kA*kG*k[5mC]*d[5mC]*dG*dA*dT*d[5mC]*dA*d[5mC]*dA*dA*dA*kA*kG*kG; antisense) [compound 799848] | 59
32 | 799849 (kA*kT*kA*dA*dG*d[5mC]*d[5mC]*dG*dA*dT*d[5mC]*dA*d[5mC]*kA*kA*kA; antisense) [compound 799849] | 41

Same assay, conditions: Hep3B cells, electroporation, 10,000 nM antisense oligonucleotide, approximately 24 hours, RTS5062, relative to untreated control cells

Row | Substance | % inhibition of SMAD7 mRNA expression [%]
33 | 799796 (k[5mC]*kA*kT*dT*dA*dG*dA*dT*dA*d[5mC]*dT*dG*dT*k[5mC]*kT*kT; antisense) [compound 799796] | 43
34 | 799797 (kG*kA*k[5mC]*dA*dT*dT*dA*dG*dA*dT*dA*d[5mC]*dT*kG*kT*k[5mC]; antisense) [compound 799797] | 27
35 | 799798 (kT*k[5mC]*k[5mC]*d[5mC]*dA*d[5mC]*dT*dT*d[5mC]*dT*d[5mC]*d[5mC]*dT*k[5mC]*kT*kG; antisense) [compound 799798] | 50
36 | 799799 (kA*kA*kA*dA*d[5mC]*dA*dT*d[5mC]*d[5mC]*d[5mC]*dA*d[5mC]*dT*kT*k[5mC]*kT; antisense) [compound 799799] | 28
37 | 799800 (kT*kT*kA*d[5mC]*dA*dA*dA*dG*dG*dG*dA*dA*dA*kG*kT*k[5mC]; antisense) [compound 799800] | 28
38 | 799811 (antisense k[5mC]*kT*kG*d[5mC]*d[5mC]*dA*dA*d[5mC]*dG*dG*d[5mC]*dA*d[5mC]*kA*kG*kT) [compound 799811] | 0
39 | 799812 (antisense k[5mC]*kA*kG*dA*d[5mC]*dA*dG*d[5mC]*dT*dA*dA*dT*d[5mC]*kT*kG*k[5mC]) [compound 799812] | 39
40 | 799813 (antisense kA*kT*kG*d[5mC]*dA*dG*dA*d[5mC]*dA*dG*d[5mC]*dT*dA*kA*kT*k[5mC]) [compound 799813] | 16
41 | 799814 (antisense k[5mC]*k[5mC]*kT*d[5mC]*dA*d[5mC]*dT*dT*dA*dG*d[5mC]*d[5mC]*dT*kG*k[5mC]*kA) [compound 799814] | 0
42 | 799815 (antisense k[5mC]*kT*k[5mC]*dT*dT*dG*dA*dT*dG*dA*dT*d[5mC]*d[5mC]*kT*k[5mC]*kA) [compound 799815] | 68
43 | 799816 (antisense kT*kG*kA*d[5mC]*dA*dA*dG*dG*dT*d[5mC]*d[5mC]*d[5mC]*d[5mC]*kA*kG*kG) [compound 799816] | 19
44 | 799817 (antisense kT*kA*k[5mC]*dT*dG*dA*dT*dT*d[5mC]*dA*dT*dG*dA*kG*kG*kG) [compound 799817] | 45
45 | 799818 (antisense k[5mC]*kA*k[5mC]*dT*dG*dA*dT*dA*dA*d[5mC]*dT*dA*dA*k[5mC]*kT*kT) [compound 799818] | 24
46 | 799819 (antisense k[5mC]*k[5mC]*k[5mC]*d[5mC]*dA*d[5mC]*dT*dG*dA*dG*d[5mC]*dA*dG*kG*kA*kG) [compound 799819] | 26
47 | 799820 (antisense k[5mC]*k[5mC]*k[5mC]*d[5mC]*dA*dG*d[5mC]*dA*dG*dG*dG*dT*dT*kT*kT*kG) [compound 799820] | 0
48 | 799831 (antisense kT*kA*k[5mC]*dT*dT*dG*dG*dA*dA*dG*dA*dG*dT*kT*kT*kG) [compound 799831] | 18
49 | 799832 (antisense k[5mC]*kA*k[5mC]*d[5mC]*d[5mC]*dA*dT*dA*d[5mC]*dT*dT*dG*dG*kA*kA*kG) [compound 799832] | 14
50 | 799833 (antisense kT*kT*kT*d[5mC]*dT*dG*dA*dA*d[5mC]*dA*dG*dA*dG*kT*k[5mC]*k[5mC]) [compound 799833] | 39
51 | 799834 (antisense kG*kT*kG*dG*dT*dA*dT*dA*dG*d[5mC]*dA*dT*dG*k[5mC]*kA*kT) [compound 799834] | 0
52 | 799835 (antisense kG*k[5mC]*kA*dG*dA*dT*dG*dT*dA*dT*dA*d[5mC]*dA*kA*kA*kT) [compound 799835] | 70
53 | 799836 (antisense kA*kG*kA*dT*dA*dT*d[5mC]*dG*dG*d[5mC]*d[5mC]*d[5mC]*d[5mC]*k[5mC]*kT*kG) [compound 799836] | 61
